According to patent publication US10004786B2 (Zealand Pharma A/S, priority 2009, dated 2018):
Numbered stars: 1 amine (or outer) side, 2 acyl side, 3 side chain; on linkers, the order of the positions; unused ones are H or OH. Square brackets hold non-standard residues; d marks the D form. Side chains are listed from the residue outwards. Peptide text beside a SMILES is read from it. * marks the point of attachment. γGlu = O=C(O)[C@H](CCC(=O)[*:2])N[*:1]; Palmitoyl = CCCCCCCCCCCCCCCC(=O)*; Aib = CC(C)(N)C(=O)O

Experiments:
human Glucagon-R = biological target: T1, human Glucagon-R (Homo sapiens, UniProt P47871); assay: Glucagon receptor efficacy assay (cAMP formation in HEK293 cells expressing human Glucagon-R); format: cell-based; details: Table 1a, HEK293 cells expressing hGlucagonR, read-out: EC50 (nM) GluR
T1 construct: expressed in transfected cells
Protocol: The 5′-end primers additionally encoded a near Kozak consensus sequence to ensure efficient translation.
48 hr after transfection cells were seeded for limited dilution cloning and selected with 1 mg/ml G418 in the culture medium.
On the day of analysis, growth medium was removed and the cells washed once with 200 μl Tyrode buffer. […] The reaction was stopped by addition of 25 μl 0.5 M HCl and incubated on ice for 60 min. The cAMP content was estimated using the FlashPlate® cAMP kit from Perkin-Elmer.
Efficacy of the GluGLP-1 agonists were estimated by exposing cells expressing hGlucagonR and hGLP-1R to the listed acylated compounds at increasing concentrations and measuring the formed cAMP as described in Methods.

GluR = biological target: T2, GluR (Homo sapiens, UniProt P47871); assay: Hepatocyt cAMP formation (primary human hepatocyts); format: cell-based
T2 construct: Primary human hepatocyts provided by Lonza Walkersvill, Inc; host or cells: primary human hepatocytes
Protocol: Primary human hepatocyts provided by Lonza Walkersvill, Inc. were carefully washed in TB buffer and incubated at 37° C. with peptides dissolved in TB buffer supplemented with 100 μM IBMX and 0.1% casein for 15 minutes. Prior to addition to the cells, the peptide dilutions were pre-warmed to 37° C. The reaction was stopped by addition of 25 μl of ice cold 0.5 M HCl, and the cells were incubated on ice for 60 min. The cAMP content in the wells was determined by adding 25 μl of the acid extracts from the wells to 75 μl sodium acetate buffer, pH 6.2, in 96-well microtiter “FlashPlates” coated with scintillant and anti-cAMP antibodies.
The amount of cAMP produced by the cells was calculated by extrapolation to a cAMP standard curve.
EC50 values were estimated by fitting the cAMP data to the below formula using Sigma Plot: […]

[1] = Body weight gain in high fat fed C57BL/6J mice (10 days); format: in vivo; details: short term high fat-fed C57BL/6J mice
Protocol: C57Bl/6J male mice, 6 weeks old, were acclimatized in their new environment for 4 weeks with free access to high fat diet (HFD) (D12492, Research Diet Inc., New Brunswick, USA) and water. The animals were injected s.c. with 100 μl vehicle for a period of three days to acclimatize the animals to handling and injections, prior to initiation of peptide treatment. […] Throughout the study, body weights were recorded daily and used to administer the body weight-corrected doses of peptide. All animals were sacrificed on the same day by cervical dislocation.
C57Bl/6J male mice on high fat diet (HFD) were treated (b.i.d.; s.c.) (0.5 and 5 nmol/kg) or vehicle. Body weights were recorded daily and used to administer the body weight-corrected doses of peptide throughout the study. Data are shown as mean±SEM in FIG. 7.

[2] = Food intake in young lean and old obese C57BL/6J mice; format: in vivo; details: s.c. at t=0 h and t=12 h, p<0.05 versus vehicle
Protocol: C57BL/6J mice were on a high fat diet for 11 days and C57BL/6J mice were on a high fat diet for 52 weeks.
3 days before study, the mice were transferred to individual cages and weighed. 4 days before study, they were acclimatized to handling and treatment by daily s.c. injections. On the day before the experiment food was removed at 20:00. […] Immediately after treatment (t=0), pre-weighed food were introduced to the mice and the cumulative food intake was measured by weighing the remaining food after t=1, 2, 4, 8, 12 and 24 hours. After weighing the food and the animals at t=24 h, the mice were sacrificed by cervical dislocation.
Immediately after treatment (t=0), pre-weighed food were introduced to the mice and the cumulative food intake was measured by weighing the remaining food after t=1, 2, 4, 8, 12 and 24 hours.

[3] = Pharmacokinetic screening in mouse plasma after subcutaneous administration; format: in vivo; details: sc, mice, 100 nmol/kg s.c., * = only two time points used for calculation
Protocol: Mice were dosed 100 nmol/kg subcutaneously (s.c.). The mice were sacrificed and the blood collected at the following time points; 0.5, 2, 4, 6, 16 and 24 h. Plasma samples were analyzed using protein precipitation, followed by solid phase extraction (SPE) and liquid chromatography mass spectrometry (LC-MS).
Pharmacokinetic profiles were determined for various acylated compounds.

[4] = Liver weight/body weight of C57BL/6J mice treated for 2 weeks; format: in vivo; details: 5 nmol/kg twice daily s.c.
Protocol: Mice were treated twice daily s.c. with Cpd. 1 and Cpd. 11 (at two doses: 0.5 and 5 nmol/kg) or vehicle for 2 weeks. Throughout the study, body weights were recorded daily and used to administer the body weight-corrected doses of peptide. On the day of sacrifice, the liver was exposed, and weighed.

T2 sequence (P47871 26-477): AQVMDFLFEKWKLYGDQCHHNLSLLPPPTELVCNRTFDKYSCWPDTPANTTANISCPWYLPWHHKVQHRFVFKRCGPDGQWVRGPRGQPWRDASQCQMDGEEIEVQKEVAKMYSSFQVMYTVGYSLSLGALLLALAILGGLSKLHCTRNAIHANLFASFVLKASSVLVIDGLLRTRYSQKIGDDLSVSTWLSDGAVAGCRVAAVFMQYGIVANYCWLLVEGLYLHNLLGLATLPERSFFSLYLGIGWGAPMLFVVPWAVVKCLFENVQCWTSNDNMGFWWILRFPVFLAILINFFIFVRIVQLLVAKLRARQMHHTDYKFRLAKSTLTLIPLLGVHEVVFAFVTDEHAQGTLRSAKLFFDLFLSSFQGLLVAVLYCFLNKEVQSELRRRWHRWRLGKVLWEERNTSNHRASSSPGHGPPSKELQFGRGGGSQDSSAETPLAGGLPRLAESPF
T1 sequence (P47871 26-477): as above

CCCCCCCCCCCCCCCC(=O)NCCCC(=O)NCCCC[C@H](NC(=O)[C@H](CO)NC(=O)[C@H](CC(=O)O)NC(=O)[C@H](CC(C)C)NC(=O)[C@H](Cc1ccc(O)cc1)NC(=O)[C@H](CCCCN)NC(=O)[C@H](CO)NC(=O)[C@H](Cc1ccc(O)cc1)NC(=O)[C@H](CC(=O)O)NC(=O)[C@H](CO)NC(=O)[C@@H](NC(=O)[C@H](Cc1ccccc1)NC(=O)[C@@H](NC(=O)CNC(=O)[C@H](CCC(N)=O)NC(=O)C(C)(C)NC(=O)[C@@H](N)Cc1c[nH]cn1)[C@@H](C)O)[C@@H](C)O)C(=O)N[C@@H](C)C(=O)N[C@@H](C)C(=O)N[C@@H](Cc1c[nH]cn1)C(=O)N[C@@H](CC(=O)O)C(=O)N[C@@H](Cc1ccccc1)C(=O)N[C@H](C(=O)N[C@@H](CCC(=O)O)C(=O)N[C@@H](Cc1c[nH]c2ccccc12)C(=O)N[C@@H](CC(C)C)C(=O)N[C@@H](CC(C)C)C(=O)N[C@@H](CO)C(=O)N[C@@H](C)C(N)=O)C(C)C [Compound 27]
EC50 (human Glucagon-R): 0.147 nM

CCCCCCCCCCCCCCCC(=O)N[C@@H](CCC(=O)NCCCC[C@H](NC(=O)[C@H](C)NC(=O)[C@H](C)NC(=O)[C@H](CCCCN)NC(=O)[C@H](CO)NC(=O)[C@H](CC(=O)O)NC(=O)[C@H](CC(C)C)NC(=O)[C@H](Cc1ccc(O)cc1)NC(=O)[C@H](CCCCN)NC(=O)[C@H](CO)NC(=O)[C@H](Cc1ccc(O)cc1)NC(=O)[C@H](CC(=O)O)NC(=O)[C@H](CO)NC(=O)[C@@H](NC(=O)[C@H](Cc1ccccc1)NC(=O)[C@@H](NC(=O)CNC(=O)[C@H](CCC(N)=O)NC(=O)C(C)(C)NC(=O)[C@@H](N)Cc1c[nH]cn1)[C@@H](C)O)[C@@H](C)O)C(=O)N[C@@H](CC(=O)O)C(=O)N[C@@H](Cc1ccccc1)C(=O)N[C@H](C(=O)N[C@@H](CCC(=O)O)C(=O)N[C@@H](Cc1c[nH]c2ccccc12)C(=O)N[C@@H](CC(C)C)C(=O)N[C@@H](CC(C)C)C(=O)N[C@@H](CO)C(=O)N[C@@H](C)C(N)=O)C(C)C)C(=O)O [Compound 35] (H-H[Aib]QGTFTSDYSKYLDSKAAK([γGlu-Palmitoyl])DFVEWLLSA-NH2)
EC50 (human Glucagon-R): 0.18 nM

CCCCCCCCCCCCCCCC(=O)N[C@@H](CCC(=O)NCCCC[C@H](NC(=O)[C@H](CC(C)C)NC(=O)[C@H](CC(C)C)NC(=O)[C@H](Cc1c[nH]c2ccccc12)NC(=O)[C@H](CCC(=O)O)NC(=O)[C@@H](NC(=O)[C@H](Cc1ccccc1)NC(=O)[C@H](CC(=O)O)NC(=O)[C@H](Cc1c[nH]cn1)NC(=O)[C@H](C)NC(=O)[C@H](C)NC(=O)[C@H](CCCCN)NC(=O)[C@H](CO)NC(=O)[C@H](CC(=O)O)NC(=O)[C@H](CC(C)C)NC(=O)[C@H](Cc1ccc(O)cc1)NC(=O)[C@H](CCCCN)NC(=O)[C@H](CO)NC(=O)[C@H](Cc1ccc(O)cc1)NC(=O)[C@H](CC(=O)O)NC(=O)[C@H](CO)NC(=O)[C@@H](NC(=O)[C@H](Cc1ccccc1)NC(=O)[C@@H](NC(=O)CNC(=O)[C@H](CCC(N)=O)NC(=O)C(C)(C)NC(=O)[C@@H](N)Cc1c[nH]cn1)[C@@H](C)O)[C@@H](C)O)C(C)C)C(=O)N[C@@H](C)C(N)=O)C(=O)O [Compound 37] (H-H[Aib]QGTFTSDYSKYLDSKAAHDFVEWLLK([γGlu-Palmitoyl])A-NH2)
EC50 (human Glucagon-R): 0.147 nM

CCCCCCCCCCCCCCCC(=O)N[C@@H](CCC(=O)NCCCC[C@H](NC(=O)[C@H](CO)NC(=O)[C@H](CC(=O)O)NC(=O)[C@H](CC(C)C)NC(=O)[C@H](Cc1ccc(O)cc1)NC(=O)[C@H](CCCCN)NC(=O)[C@H](CO)NC(=O)[C@H](Cc1ccc(O)cc1)NC(=O)[C@H](CC(=O)O)NC(=O)[C@H](CO)NC(=O)[C@@H](NC(=O)[C@H](Cc1ccccc1)NC(=O)[C@@H](NC(=O)CNC(=O)[C@H](CCC(N)=O)NC(=O)C(C)(C)NC(=O)[C@@H](N)Cc1c[nH]cn1)[C@@H](C)O)[C@@H](C)O)C(=O)N[C@@H](C)C(=O)N[C@@H](C)C(=O)N[C@@H](CCC(=O)O)C(=O)N[C@@H](CC(=O)O)C(=O)N[C@@H](Cc1ccccc1)C(=O)N[C@H](C(=O)N[C@@H](CCC(=O)O)C(=O)N[C@@H](Cc1c[nH]c2ccccc12)C(=O)N[C@@H](CC(C)C)C(=O)N[C@@H](CC(C)C)C(=O)N[C@@H](CO)C(=O)N[C@@H](C)C(N)=O)C(C)C)C(=O)O [Compound 42] (H-H[Aib]QGTFTSDYSKYLDSK([γGlu-Palmitoyl])AAEDFVEWLLSA-NH2)
EC50 (human Glucagon-R): 0.27 nM

CCCCCCCCCCCCCCCC(=O)N[C@@H](CCC(=O)NCCCC[C@H](NC(=O)[C@H](CO)NC(=O)[C@H](CC(=O)O)NC(=O)[C@H](CC(C)C)NC(=O)[C@H](Cc1ccc(O)cc1)NC(=O)[C@H](CCCCN)NC(=O)[C@H](CO)NC(=O)[C@H](Cc1ccc(O)cc1)NC(=O)[C@H](CC(=O)O)NC(=O)[C@H](CO)NC(=O)[C@@H](NC(=O)[C@H](Cc1ccccc1)NC(=O)[C@@H](NC(=O)CNC(=O)[C@H](CCC(N)=O)NC(=O)C(C)(C)NC(=O)[C@@H](N)Cc1c[nH]cn1)[C@@H](C)O)[C@@H](C)O)C(=O)N[C@@H](C)C(=O)N[C@@H](C)C(=O)N[C@@H](Cc1c[nH]cn1)C(=O)N[C@@H](CC(=O)O)C(=O)N[C@@H](Cc1ccccc1)C(=O)N[C@H](C(=O)N[C@@H](CCC(=O)O)C(=O)N[C@@H](Cc1c[nH]c2ccccc12)C(=O)N[C@@H](CC(C)C)C(=O)N[C@@H](CC(C)C)C(=O)N[C@@H](CCC(=O)O)C(=O)N[C@@H](C)C(N)=O)C(C)C)C(=O)O [Compound 43] (H-H[Aib]QGTFTSDYSKYLDSK([γGlu-Palmitoyl])AAHDFVEWLLEA-NH2)
EC50 (human Glucagon-R): 0.12 nM

CCCCCCCCCCCCCCCC(=O)N[C@@H](CCC(=O)NCCCC[C@H](NC(=O)[C@H](C)NC(=O)[C@H](C)NC(=O)[C@H](CCC(N)=O)NC(=O)CNC(=O)[C@H](CCC(=O)O)NC(=O)[C@H](CC(C)C)NC(=O)[C@H](Cc1ccc(O)cc1)NC(=O)[C@H](CO)NC(=O)[C@H](CO)NC(=O)[C@@H](NC(=O)[C@H](CC(=O)O)NC(=O)[C@H](CO)NC(=O)[C@@H](NC(=O)[C@H](Cc1ccccc1)NC(=O)[C@@H](NC(=O)CNC(=O)[C@H](CCC(=O)O)NC(=O)[C@H](C)NC(=O)[C@@H](N)Cc1cnc[nH]1)[C@@H](C)O)[C@@H](C)O)C(C)C)C(=O)N[C@@H](CCC(=O)O)C(=O)N[C@@H](Cc1ccccc1)C(=O)N[C@H](C(=O)N[C@@H](C)C(=O)N[C@@H](Cc1c[nH]c2ccccc12)C(=O)N[C@@H](CC(C)C)C(=O)N[C@H](C(=O)N[C@@H](CCCNC(=N)N)C(=O)NCC(=O)N[C@@H](CCCNC(=N)N)C(=O)NCC(=O)O)C(C)C)[C@@H](C)CC)C(=O)O [Liraglutide]
GluR EC50 (nM) (1) (GluR; experiment (1)): ∞
GluR EC50 (nM) (2) (GluR; experiment (2)): ∞
GluR EC50 (nM) (log avg) (GluR; log average of (1) and (2)): ∞

Exendin-4 [reference compound]
body weight gain, low dose ([1]; 0.5 nmol/kg b.i.d. s.c.): significantly decreased body weight gain at both doses
body weight gain, high dose ([1]; 5 nmol/kg b.i.d. s.c.): significantly decreased body weight gain at both doses
food intake, old obese mice ([2]; high fat diet for 52 weeks): reduced food intake in all time periods
food intake, young lean mice ([2]; high fat diet for 11 days): reduced food intake during the 0-2, 0-4, 0-8, 0-12 and 0-24 time periods

H-HSQGTFTSDYSKYLDSKAAHDFVEWLLRA-NH2 [Compound 1]
half-life [3]: 13.8 min
liver weight/body weight ratio, high dose [4]: significantly increased
